Experimental data published in patent publication US10150751B2 (Merck Sharp & Dohme Corp., priority 2014, dated 2018).

Experiments:
human orexin-2 receptor = human orexin-2 receptor (Homo sapiens (Human), UniProt O43614); assay: FLIPR Ca2+ flux assay, hOX2R; type: cell-based; conditions: CHO cells expressing the human orexin-2 receptor; agonist 70 pM Ala-6,12 orexin-A
Experimental: The utility of the compounds in accordance with the present invention as orexin receptor OX1R and/or OX2R antagonists may be readily determined without undue experimentation by methodology well known in the art, including the “FLIPR Ca^2+ Flux Assay” (Okumura et al., Biochem. Biophys. Res. Comm. 280:976-981, 2001). In a typical experiment the OX1 and OX2 receptor antagonistic activity of the compounds of the present invention was determined in accordance with the following experimental method. For intracellular calcium measurements, Chinese hamster ovary (CHO) cells expressing the rat orexin-1 receptor or the human orexin-2 receptor, are grown in Iscove's modified DMEM containing 2 mM L-glutamine, […], 1% hypoxanthine-thymidine supplement, 100 U/ml penicillin, 100 μg/ml streptomycin and 10% heat-inactivated fetal calf serum (FCS). The cells are seeded at 20,000 cells/well into Becton-Dickinson black 384-well clear bottom sterile plates coated with poly-D-lysine. All reagents were from GIBCO-Invitrogen Corp. The seeded plates are incubated overnight at 37° C. and 5% CO2. Ala-6,12 human orexin-A as the agonist is prepared as a 1 mM stock solution in 1% bovine serum albumin (BSA) and diluted in assay buffer (HBSS containing 20 mM HEPES, 0.1% BSA and 2.5 mM probenecid, pH7.4) for use in the assay at a final concentration of 70pM. Test compounds are prepared as 10 mM stock solution in DMSO, then diluted in 384-well plates, first in DMSO, then assay buffer. On the day of the assay, cells are washed 3 times with 100 μl assay buffer and then incubated for 60 min (37° C., 5% CO2) in 60 μl assay buffer containing 1 μM Fluo-4AM ester, 0.02% pluronic acid, and 1% BSA. The dye loading solution is then aspirated and cells are washed 3 times with 100 μl assay buffer. 30 μl of that same buffer is left in each well. Within the Fluorescent Imaging Plate Reader (FLIPR, Molecular Devices), test compounds are added to the plate in a volume of 25 μl, incubated for 5 min and finally 25 μl of agonist is added. Fluorescence is measured for each well at 1 second intervals for 5 minutes and the height of each fluorescence peak is compared to the height of the fluorescence peak induced by 70 pM Ala-6,12 orexin-A with buffer in place of antagonist. For each antagonist, IC50 value (the concentration of compound needed to inhibit 50% of the agonist response) is determined. Alternatively, compound potency can be assessed by a radioligand binding assay (described in Bergman et. al. Bioorg. Med. Chem. Lett. 2008, 18, 1425-1430) in which the inhibition constant (Ki) is determined in membranes prepared from CHO cells expressing either the OX1 or OX2 receptor. The intrinsic orexin receptor antagonist activity of a compound which may be used in the present invention may be determined by these assays.

[1] = molecular target: hOX1R (orexin-1 receptor) (Homo sapiens, UniProt O43613); assay: FLIPR Ca2+ flux assay, hOX1R; type: cell-based; conditions: CHO cells expressing the orexin-1 receptor (head: hOX1R; method: rat); agonist 70 pM Ala-6,12 orexin-A

Chain of human orexin-2 receptor (O43614 whole entry): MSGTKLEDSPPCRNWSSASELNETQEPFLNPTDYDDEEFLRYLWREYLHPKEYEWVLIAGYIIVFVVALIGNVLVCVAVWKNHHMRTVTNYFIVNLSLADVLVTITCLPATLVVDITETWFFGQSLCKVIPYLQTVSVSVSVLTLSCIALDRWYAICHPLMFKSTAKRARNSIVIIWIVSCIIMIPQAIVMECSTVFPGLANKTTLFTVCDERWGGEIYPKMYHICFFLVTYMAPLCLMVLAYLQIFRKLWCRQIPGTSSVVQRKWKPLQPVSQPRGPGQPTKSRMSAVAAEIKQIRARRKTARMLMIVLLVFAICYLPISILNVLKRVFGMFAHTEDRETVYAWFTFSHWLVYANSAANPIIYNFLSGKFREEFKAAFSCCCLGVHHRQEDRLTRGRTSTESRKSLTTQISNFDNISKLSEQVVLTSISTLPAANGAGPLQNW

IC50 (human orexin-2 receptor)	IC50 [1]	Structure (SMILES)
367 nM	> 10000 nM	C[C@@H]1C[C@@H](Nc2cc(OCC(F)F)ccn2)CN1C(=O)c1ccccc1-n1ncnn1 [Example 3, (2-(2H-tetrazol-2-yl)phenyl)((2R,4R)-4-((4-(2,2-difluoroethoxy)pyridin-2-yl)amino)-2-methylpyrrolidin-1-yl)methanone]
175 nM	6290 nM	C[C@@H]1C[C@@H](Nc2ccc(F)cn2)CN1C(=O)c1ccccc1-n1nccn1 [Example 11, (2-(2H-1,2,3-triazol-2-yl)phenyl)((2R,4R)-4-((5-fluoropyridin-2-yl)amino)-2-methylpyrrolidin-1-yl)methanone]
36.1 nM	3380 nM	COc1cccnc1N[C@@H]1C[C@@H](C)N(C(=O)c2ccccc2-n2nccn2)C1 [Example 25, (2-(2H-1,2,3-triazol-2-yl)phenyl)((2R,4R)-4-((3-methoxypyridin-2-yl)amino)-2-methylpyrrolidin-1-yl)methanone]
989 nM	> 10000 nM	CCOc1ncccc1C(=O)N1C[C@H](Nc2cc(OCC(F)F)ccn2)C[C@H]1C [Example 6, ((2R,4R)-4-((4-(2,2-difluoroethoxy)pyridin-2-yl)amino)-2-methylpyrrolidin-1-yl)(2-ethoxypyridin-3-yl)methanone]
23.1 nM	1160 nM	C[C@@H]1C[C@@H](Nc2cc(Cl)ccn2)CN1C(=O)c1ccccc1-n1nccn1 [Example 15, (2-(2H-1,2,3-triazol-2-yl)phenyl)((2R,4R)-4-((4-chloropyridin-2-yl)amino)-2-methylpyrrolidin-1-yl)methanone]
1500 nM	10000 nM	COc1cccnc1N[C@@H]1C[C@@H](C)N(C(=O)c2nccnc2-n2cccn2)C1 [Example 43, (3-(1H-Pyrazol-1-yl)pyrazin-2-yl)((2R,4R)-4-((3-methoxypyridin-2-yl)amino)-2-methylpyrrolidin-1-yl)methanone]
31.1 nM	> 10000 nM	C[C@@H]1C[C@@H](Nc2cc(C#N)ccn2)CN1C(=O)c1ccccc1-c1ncccn1 [Example 30, 2-(((3R,5R)-5-Methyl-1-(2-(pyrimidin-2-yl)benzoyl)pyrrolidin-3-yl)amino)isonicotinonitrile]
29.7 nM	6750 nM	COC(=O)c1c(OC)ccnc1N[C@@H]1C[C@@H](C)N(C(=O)c2ccccc2-n2nccn2)C1 [Example 32, Methyl 2-(((3R,5R)-1-(2-(2H-1,2,3-triazol-2-yl)benzoyl)-5-methylpyrrolidin-3-yl)amino)-4-methoxynicotinate]
75.9 nM	4070 nM	Cc1ccnc(N[C@@H]2C[C@@H](C)N(C(=O)c3ccccc3-n3nccn3)C2)c1 [Example 16, (2-(2H-1,2,3-triazol-2-yl)phenyl)((2R,4R)-2-methyl-4-((4-methylpyridin-2-yl)amino)pyrrolidin-1-yl)methanone]
13.6 nM	1630 nM	C[C@@H]1C[C@@H](Nc2cc(C(F)F)ccn2)CN1C(=O)c1ccccc1-n1nccn1 [Example 9, (2-(2H-1,2,3-triazol-2-yl)phenyl)((2R,4R)-4-((4-(difluoromethyl)pyridin-2-yl)amino)-2-methylpyrrolidin-1-yl)methanone]
15.3 nM	257 nM	C[C@@H]1C[C@@H](Nc2nccc3ccccc23)CN1C(=O)c1ccccc1-n1nccn1 [Example 12, (2-(2H-1,2,3-triazol-2-yl)phenyl)((2R,4R)-4-(isoquinolin-1-ylamino)-2-methylpyrrolidin-1-yl)methanone]
500 nM	10000 nM	COc1cccnc1N[C@@H]1C[C@@H](C)N(C(=O)c2ccccc2-c2noc(C)n2)C1 [Example 42, ((2R,4R)-4-((3-Methoxypyridin-2-yl)amino)-2-methylpyrrolidin-1-yl)(2-(5-methyl-1,2,4-oxadiazol-3-yl)phenyl)methanone]
119 nM	> 10000 nM	C[C@@H]1C[C@@H](Nc2cc(F)ccn2)CN1C(=O)c1ccccc1-n1nccn1 [Example 17, (2-(2H-1,2,3-triazol-2-yl)phenyl)((2R,4R)-4-((4-fluoropyridin-2-yl)amino)-2-methylpyrrolidin-1-yl)methanone]
23.9 nM	2720 nM	COc1ccnc(N[C@@H]2C[C@@H](C)N(C(=O)c3ccccc3C3(C#N)CC3)C2)c1 [Example 24, 1-(2-((2R,4R)-4-((4-Methoxypyridin-2-yl)amino)-2-methylpyrrolidine-1-carbonyl)phenyl)cyclopropanecarbonitrile]
26.3 nM	1090 nM	C[C@@H]1C[C@@H](Nc2cc(C(F)(F)F)ccn2)CN1C(=O)c1ccccc1-n1nccn1 [Example 14, (2-(2H-1,2,3-triazol-2-yl)phenyl)((2R,4R)-2-methyl-4-((4-(trifluoromethyl)pyridin-2-yl)amino)pyrrolidin-1-yl)methanone]
40.8 nM	> 10000 nM	COc1c(C#N)ccnc1N[C@@H]1C[C@@H](C)N(C(=O)c2ccccc2-n2nccn2)C1 [Example 39, 2-(((3R,5R)-1-(2-(2H-1,2,3-Triazol-2-yl)benzoyl)-5-methylpyrrolidin-3-yl)amino)-3-methoxyisonicotinonitrile]
136 nM	2250 nM	C[C@@H]1C[C@@H](N(C)c2cc(Br)ccn2)CN1C(=O)c1ccccc1-n1nccn1 [Example 35, (2-(2H-1,2,3-Triazol-2-yl)phenyl)((2R,4R)-4-((4-bromopyridin-2-yl)(methyl)amino)-2-methylpyrrolidin-1-yl)methanone]
167 nM	> 10000 nM	COc1ccnc(N[C@@H]2C[C@@H](C)N(C(=O)c3ccccc3-n3nccn3)C2)c1C#N [Example 18, 2-(((3R,5R)-1-(2-(2H-1,2,3-triazol-2-yl)benzoyl)-5-methylpyrrolidin-3-yl)amino)-4-methoxynicotinonitrile]

Structure (SMILES)	IC50 (human orexin-2 receptor)	IC50 [1]
Cc1c(C#N)ccnc1N(C)[C@@H]1C[C@@H](C)N(C(=O)c2ccccc2-n2nccn2)C1 [Example 37, 2-(((3R,5R)-1-(2-(2H-1,2,3-Triazol-2-yl)benzoyl)-5-methylpyrrolidin-3-yl)(methyl)amino)-3-methylisonicotinonitrile]	3210 nM	> 10000 nM
CCOC(=O)c1c(OC)ccnc1N[C@@H]1C[C@@H](C)N(C(=O)c2ccccc2-n2nccn2)C1 [Example 33, Ethyl 2-(((3R,5R)-1-(2-(2H-1,2,3-triazol-2-yl)benzoyl)-5-methylpyrrolidin-3-yl)amino)-4-methoxynicotinate]	31.1 nM	4070 nM
C[C@@H]1C[C@@H](Nc2cc(OCC(F)F)ccn2)CN1C(=O)c1ccsc1-n1nccn1 [Example 5]	625 nM	> 10000 nM
C[C@@H]1C[C@@H](Nc2cc(C#N)ccn2)CN1C(=O)c1ccccc1-n1ncnn1 [Example 29, 2-(((3R,5R)-1-(2-(2H-tetrazol-2-yl)benzoyl)-5-methylpyrrolidin-3-yl)amino)isonicotinonitrile]	302 nM	> 10000 nM
C[C@@H]1C[C@@H](Nc2cc(C#N)ccn2)CN1C(=O)c1ccccc1-n1nccn1 [Example 19, 2-(((3R,5R)-1-(2-(2H-1,2,3-triazol-2-yl)benzoyl)-5-methylpyrrolidin-3-yl)amino)isonicotinonitrile]	22.9 nM	> 10000 nM
